Measurements published in US20250353891A1 (MEDIMMUNE LIMITED, priority 2022, published 2025).
Starred links: 1 amine or outer side, 2 acyl side, 3 side chain; linkers in the order of their positions; H or OH if unused. Non-standard residues stand in square brackets, D forms with d. Residues, ends and D or L forms follow the SMILES beside them. Groups on a side chain read outwards from the residue. *: point of attachment. C20 diacid = O=C(O)CCCCCCCCCCCCCCCCCCC(=O)*; C18 diacid = O=C(O)CCCCCCCCCCCCCCCCC(=O)*; γGlu = O=C(O)[C@H](CCC(=O)[*:2])N[*:1]; αMeF = C[C@](N)(Cc1ccccc1)C(=O)O; AEEA = NCCOCCOCC(=O)O; Aib = CC(C)(N)C(=O)O

Tests used:
[1] = target: human GLP-1 receptor (hGLP-1R) (Homo sapiens, UniProt P43220); test: cAMP production (HTRF) in CHO cells expressing hGLP-1R; type: cell-based; design: expressed in transfected cells; settings: for EC50: Table 6, peptides modified at position 17, cAMP in CHO hGLP-1R cells, geometric mean, read-out: hGLP-1R EC50; for % Relative Potency Ratio: Table 6, % GLP-1R activity relative to GLP-1 / % GlucR activity relative to glucagon
Procedure, shortened: (§1)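 Potency values represent EC50 from 4-parameter logistic curves of HTRF % Delta F signal. Receptor-expressing CHO cells (hGCGR 2×10^5 cells/mL, hGLP-1R 1×10^5 cells/mL) were exposed for 30 min at room temperature before two-step cAMP detection.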

[2] = target: human glucagon receptor (hGCGR) (Homo sapiens, UniProt P47871); test: cAMP production (HTRF) in CHO cells expressing hGCGR; type: cell-based; design: expressed in transfected cells; settings: Table 6, peptides modified at position 17; cAMP in CHO hGCGR cells; geometric mean; read-out: hGluc-R EC50
Procedure, shortened: as §1

human GLP-1 receptor (hGLP-1R), sequence (P43220 24-463): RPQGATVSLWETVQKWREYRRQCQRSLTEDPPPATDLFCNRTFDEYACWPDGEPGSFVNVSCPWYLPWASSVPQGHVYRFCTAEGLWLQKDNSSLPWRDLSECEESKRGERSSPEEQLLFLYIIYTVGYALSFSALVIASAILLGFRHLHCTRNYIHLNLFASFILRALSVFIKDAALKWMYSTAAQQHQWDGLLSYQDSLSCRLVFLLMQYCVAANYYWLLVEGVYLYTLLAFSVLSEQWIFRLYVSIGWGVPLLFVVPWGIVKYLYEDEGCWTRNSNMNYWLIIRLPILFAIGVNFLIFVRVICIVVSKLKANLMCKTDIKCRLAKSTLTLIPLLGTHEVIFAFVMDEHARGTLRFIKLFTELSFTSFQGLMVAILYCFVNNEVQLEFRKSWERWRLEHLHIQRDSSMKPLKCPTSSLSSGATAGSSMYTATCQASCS
human glucagon receptor (hGCGR), sequence (P47871 26-477): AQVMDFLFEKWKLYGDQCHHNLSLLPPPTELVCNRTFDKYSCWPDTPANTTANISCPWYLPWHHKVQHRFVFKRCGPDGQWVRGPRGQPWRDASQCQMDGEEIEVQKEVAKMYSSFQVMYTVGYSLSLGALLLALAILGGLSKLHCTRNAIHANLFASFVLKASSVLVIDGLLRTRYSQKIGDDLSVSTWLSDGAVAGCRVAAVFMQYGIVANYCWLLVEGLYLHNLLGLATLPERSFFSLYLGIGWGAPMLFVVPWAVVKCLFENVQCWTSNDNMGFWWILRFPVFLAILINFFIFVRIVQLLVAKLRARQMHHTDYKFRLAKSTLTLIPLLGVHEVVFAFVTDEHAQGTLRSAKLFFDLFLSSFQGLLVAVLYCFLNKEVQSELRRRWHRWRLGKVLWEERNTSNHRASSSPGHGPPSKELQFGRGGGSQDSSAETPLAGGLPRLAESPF

EC50 [1] [nM]	% Relative Potency Ratio [1]	EC50 [2] [nM]	Compound
0.0767	35.4	1.37	CC(C)C[C@H](NC(=O)[C@H](Cc1c[nH]c2ccccc12)NC(=O)[C@H](CCC(N)=O)NC(=O)[C@@H](NC(=O)[C@H](Cc1ccccc1)NC(=O)[C@H](CC(=O)O)NC(=O)[C@H](CCCNC(=N)N)NC(=O)[C@H](C)NC(=O)[C@H](C)NC(=O)[C@H](CCCCNC(=O)COCCOCCNC(=O)COCCOCCNC(=O)CC[C@H](NC(=O)CCCCCCCCCCCCCCCCC(=O)O)C(=O)O)NC(=O)[C@@H](NC(=O)[C@H](CC(=O)O)NC(=O)[C@H](CC(C)C)NC(=O)[C@](C)(Cc1ccccc1)NC(=O)[C@H](CCCCN)NC(=O)[C@H](CO)NC(=O)[C@@H](NC(=O)[C@H](CC(=O)O)NC(=O)[C@H](CO)NC(=O)[C@@H](NC(=O)[C@H](Cc1ccccc1)NC(=O)[C@@H](NC(=O)CNC(=O)[C@H](CCC(N)=O)NC(=O)C(C)(C)NC(=O)[C@@H](N)Cc1c[nH]cn1)[C@@H](C)O)[C@@H](C)O)C(C)C)[C@@H](C)O)C(C)C)C(=O)N[C@@H](CC(C)C)C(=O)N[C@@H](CCC(=O)O)C(=O)NC(C)(C)C(=O)NCC(N)=O [Peptide 514] (H-H[Aib]QGTFTSDVSK[αMeF]LDTK([AEEA-AEEA-γGlu-C18 diacid])AARDFVQWLLE[Aib]G-NH2; N-terminus assumed)
0.297	17.7	2.66	CC(C)C[C@H](NC(=O)[C@H](Cc1c[nH]c2ccccc12)NC(=O)[C@H](CCC(N)=O)NC(=O)[C@@H](NC(=O)[C@H](Cc1ccccc1)NC(=O)[C@H](CC(=O)O)NC(=O)[C@H](CCCNC(=N)N)NC(=O)[C@H](C)NC(=O)[C@H](C)NC(=O)[C@H](CCCCNC(=O)COCCOCCNC(=O)COCCOCCNC(=O)CC[C@H](NC(=O)CCCCCCCCCCCCCCCCCCC(=O)O)C(=O)O)NC(=O)[C@@H](NC(=O)[C@H](CC(=O)O)NC(=O)[C@H](CC(C)C)NC(=O)[C@](C)(Cc1ccccc1)NC(=O)[C@H](CCCCN)NC(=O)[C@H](CO)NC(=O)[C@@H](NC(=O)[C@H](CC(=O)O)NC(=O)[C@H](CO)NC(=O)[C@@H](NC(=O)[C@H](Cc1ccccc1)NC(=O)[C@@H](NC(=O)CNC(=O)[C@H](CCC(N)=O)NC(=O)C(C)(C)NC(=O)[C@@H](N)Cc1c[nH]cn1)[C@@H](C)O)[C@@H](C)O)C(C)C)[C@@H](C)O)C(C)C)C(=O)N[C@@H](CC(C)C)C(=O)N[C@@H](CCC(=O)O)C(=O)NC(C)(C)C(=O)NCC(N)=O [Peptide 515] (H-H[Aib]QGTFTSDVSK[αMeF]LDTK([AEEA-AEEA-γGlu-C20 diacid])AARDFVQWLLE[Aib]G-NH2; N-terminus assumed)
0.137	11.3	0.785	CC(C)C[C@H](NC(=O)[C@H](CC(C)C)NC(=O)[C@H](Cc1c[nH]c2ccccc12)NC(=O)[C@H](CCCNC(=N)N)NC(=O)[C@@H](NC(=O)[C@H](Cc1ccccc1)NC(=O)[C@H](CC(=O)O)NC(=O)[C@H](CCC(N)=O)NC(=O)[C@H](C)NC(=O)[C@H](CCCNC(=N)N)NC(=O)[C@H](CCCCNC(=O)COCCOCCNC(=O)COCCOCCNC(=O)CC[C@H](NC(=O)CCCCCCCCCCCCCCCCCCC(=O)O)C(=O)O)NC(=O)[C@H](CO)NC(=O)[C@H](CCC(=O)O)NC(=O)[C@H](CC(C)C)NC(=O)[C@](C)(Cc1ccccc1)NC(=O)[C@H](CCCCN)NC(=O)[C@H](CO)NC(=O)[C@@H](NC(=O)[C@H](CC(=O)O)NC(=O)[C@H](CO)NC(=O)[C@@H](NC(=O)[C@H](Cc1ccccc1)NC(=O)[C@@H](NC(=O)CNC(=O)[C@H](CCC(N)=O)NC(=O)C(C)(C)NC(=O)[C@@H](N)Cc1c[nH]cn1)[C@@H](C)O)[C@@H](C)O)C(C)C)C(C)C)C(=O)N[C@@H](C)C(=O)NC(C)(C)C(=O)NCC(N)=O [Peptide 516] (H-H[Aib]QGTFTSDVSK[αMeF]LESK([AEEA-AEEA-γGlu-C20 diacid])RAQDFVRWLLA[Aib]G-NH2; N-terminus assumed)
0.146	10.0	0.738	CC[C@H](C)[C@H](NC(=O)[C@H](Cc1ccccc1)NC(=O)[C@H](CCC(=O)O)NC(=O)[C@H](CCCNC(=N)N)NC(=O)[C@H](C)NC(=O)[C@H](C)NC(=O)[C@H](CCCCNC(=O)COCCOCCNC(=O)COCCOCCNC(=O)CC[C@H](NC(=O)CC[C@H](NC(=O)CCCCCCCCCCCCCCCCC(=O)O)C(=O)O)C(=O)O)NC(=O)[C@H](C)NC(=O)[C@H](CCC(=O)O)NC(=O)[C@H](CC(C)C)NC(=O)[C@](C)(Cc1ccccc1)NC(=O)[C@H](CCCCN)NC(=O)[C@H](CO)NC(=O)[C@@H](NC(=O)[C@H](CC(=O)O)NC(=O)[C@H](CO)NC(=O)[C@@H](NC(=O)[C@H](Cc1ccccc1)NC(=O)[C@@H](NC(=O)CNC(=O)[C@H](CCC(N)=O)NC(=O)C(C)(C)NC(=O)[C@@H](N)Cc1c[nH]cn1)[C@@H](C)O)[C@@H](C)O)C(C)C)C(=O)N[C@@H](C)C(=O)N[C@@H](Cc1c[nH]c2ccccc12)C(=O)N[C@@H](CC(C)C)C(=O)N[C@@H](CC(C)C)C(=O)N[C@@H](CCC(=O)O)C(=O)N[C@H](C(N)=O)[C@@H](C)O [Peptide 517] (H-H[Aib]QGTFTSDVSK[αMeF]LEAK([AEEA-AEEA-γGlu-γGlu-C18 diacid])AAREFIAWLLET-NH2)
0.031	4.9	0.0773	CC(C)C[C@H](NC(=O)[C@H](Cc1c[nH]c2ccccc12)NC(=O)[C@H](CCC(N)=O)NC(=O)[C@@H](NC(=O)[C@H](Cc1ccccc1)NC(=O)[C@H](CC(=O)O)NC(=O)[C@H](CCCNC(=N)N)NC(=O)[C@H](C)NC(=O)[C@H](CCCNC(=N)N)NC(=O)[C@H](CCCCNC(=O)COCCOCCNC(=O)COCCOCCNC(=O)CC[C@H](NC(=O)CC[C@H](NC(=O)CCCCCCCCCCCCCCCCC(=O)O)C(=O)O)C(=O)O)NC(=O)[C@@H](NC(=O)[C@H](CC(=O)O)NC(=O)[C@H](CC(C)C)NC(=O)[C@](C)(Cc1ccccc1)NC(=O)[C@H](CCCCN)NC(=O)[C@H](CO)NC(=O)[C@@H](NC(=O)[C@H](CC(=O)O)NC(=O)[C@H](CO)NC(=O)[C@@H](NC(=O)[C@H](Cc1ccccc1)NC(=O)[C@@H](NC(=O)CNC(=O)[C@H](CCC(N)=O)NC(=O)C(C)(C)NC(=O)[C@@H](N)Cc1c[nH]cn1)[C@@H](C)O)[C@@H](C)O)C(C)C)[C@@H](C)O)C(C)C)C(=O)N[C@@H](CC(C)C)C(=O)N[C@@H](CCC(=O)O)C(=O)NC(C)(C)C(=O)NCC(=O)O [Peptide 518]
0.172	4.4	0.386	CC(C)C[C@H](NC(=O)[C@H](Cc1c[nH]c2ccccc12)NC(=O)[C@H](CCC(N)=O)NC(=O)[C@@H](NC(=O)[C@H](Cc1ccccc1)NC(=O)[C@H](CC(=O)O)NC(=O)[C@H](CCCNC(=N)N)NC(=O)[C@H](C)NC(=O)[C@H](CCCNC(=N)N)NC(=O)[C@H](CCCCNC(=O)CC[C@H](NC(=O)CC[C@H](NC(=O)COCCOCCNC(=O)COCCOCCNC(=O)CC[C@H](NC(=O)CC[C@H](NC(=O)CCCCCCCCCCCCCCCCC(=O)O)C(=O)O)C(=O)O)C(=O)O)C(=O)O)NC(=O)[C@@H](NC(=O)[C@H](CC(=O)O)NC(=O)[C@H](CC(C)C)NC(=O)[C@](C)(Cc1ccccc1)NC(=O)[C@H](CCCCN)NC(=O)[C@H](CO)NC(=O)[C@@H](NC(=O)[C@H](CC(=O)O)NC(=O)[C@H](CO)NC(=O)[C@@H](NC(=O)[C@H](Cc1ccccc1)NC(=O)[C@@H](NC(=O)CNC(=O)[C@H](CCC(N)=O)NC(=O)C(C)(C)NC(=O)[C@@H](N)Cc1c[nH]cn1)[C@@H](C)O)[C@@H](C)O)C(C)C)[C@@H](C)O)C(C)C)C(=O)N[C@@H](CC(C)C)C(=O)N[C@@H](CCC(=O)O)C(=O)NC(C)(C)C(=O)NCC(=O)O [Peptide 519]
0.543	5.9	1.62	CC(C)C[C@H](NC(=O)[C@H](Cc1c[nH]c2ccccc12)NC(=O)[C@H](CCC(N)=O)NC(=O)[C@@H](NC(=O)[C@H](Cc1ccccc1)NC(=O)[C@H](CC(=O)O)NC(=O)[C@H](CCCNC(=N)N)NC(=O)[C@H](C)NC(=O)[C@H](CCCNC(=N)N)NC(=O)[C@H](CCCCNC(=O)CC[C@H](NC(=O)CC[C@H](NC(=O)COCCOCCNC(=O)COCCOCCNC(=O)CC[C@H](NC(=O)CC[C@H](NC(=O)CCCCCCCCCCCCCCCCCCC(=O)O)C(=O)O)C(=O)O)C(=O)O)C(=O)O)NC(=O)[C@@H](NC(=O)[C@H](CC(=O)O)NC(=O)[C@H](CC(C)C)NC(=O)[C@](C)(Cc1ccccc1)NC(=O)[C@H](CCCCN)NC(=O)[C@H](CO)NC(=O)[C@@H](NC(=O)[C@H](CC(=O)O)NC(=O)[C@H](CO)NC(=O)[C@@H](NC(=O)[C@H](Cc1ccccc1)NC(=O)[C@@H](NC(=O)CNC(=O)[C@H](CCC(N)=O)NC(=O)C(C)(C)NC(=O)[C@@H](N)Cc1c[nH]cn1)[C@@H](C)O)[C@@H](C)O)C(C)C)[C@@H](C)O)C(C)C)C(=O)N[C@@H](CC(C)C)C(=O)N[C@@H](CCC(=O)O)C(=O)NC(C)(C)C(=O)NCC(=O)O [Peptide 520]
